Results from patent US20060105013A1, “Osteopontin-coated surfaces and methods of use” (priority 2000, published 2006).

Tested on: HOS cells
Experiment: Western blot of osteopontin and BSP secreted into extracellular matrix by HOS cells on coated Ti disks
Assay type: cell-based, human
Description: Osteopontin and BSP were extracted from the extracellular matrix of HOS cells cultured on Ti disks or Ti disks coated with the recombinant Opn with lysis buffer (20 mM phosphate buffer, pH, 7.2, containing 150 mM NaCI, 0.1% SDS, 1 mM phenylmethylsulfonyl fluoride, 5 mM benzamidine, 0.1 mM e-amino caproic acid, 0.1 b-hydroxy mercuribenzoate, 0.1 mM pyrophosphate, 1 mM sodium fluoride, 1 mM sodium orthovanadate and 10 mM EDTA). Samples were then processed for Gel electrophoresis.
Western blot analysis: Cell layer proteins and conditioned media was electrophoresed in 10% SDS-polyacrylamide slab gels at 150 volts for 4 h. For Western blot analysis resolved proteins in gels were transferred by semi-dry blotting onto nitrocellulose membranes (Schleicher & Schuell, Keene, N H), gel transfers were carried out for 90 min. at 12 V in 0.025 M Tris-glycine buffer, pH 8.2, containing 20% methanol and 0.01% Tween 20 and 10% nonfat dry milk, then incubated with rabbit anti-mouse osteopontin (Ashkar S, et al., New York Academy of Science 760:296-298, 1995) in 20 mM Phosphate buffer, pH 7.4, containing 150 mM NaCL, 0.1% Tween 20 and 1% nonfat dry milk. […] Nonspecific interaction was assessed by the interaction of the primary and secondary antibodies with rabbit serum albumin. […]

rhOPN: human recombinant phosphorylated form of osteopontin
OPN secretion into the extracellular matrix (Western blot) (HOS cells on coated Ti disks vs uncoated titanium controls): increased secretion of OPN | BSP extracellular matrix secretion (Western blot) (HOS cells on rhOPN coated implants, control groups did not express BSP): less marked than the production of osteopontin
